Source: US20080031982A1 (Metaproteomics, LLC, priority 2006, published 2008)

What was measured:
Assay in all cases: KinaseProfiler Assay
CHK1 = target: T1, CHK1 (Homo sapiens, UniProt O14757)
T1 sequence (O14757 1-476): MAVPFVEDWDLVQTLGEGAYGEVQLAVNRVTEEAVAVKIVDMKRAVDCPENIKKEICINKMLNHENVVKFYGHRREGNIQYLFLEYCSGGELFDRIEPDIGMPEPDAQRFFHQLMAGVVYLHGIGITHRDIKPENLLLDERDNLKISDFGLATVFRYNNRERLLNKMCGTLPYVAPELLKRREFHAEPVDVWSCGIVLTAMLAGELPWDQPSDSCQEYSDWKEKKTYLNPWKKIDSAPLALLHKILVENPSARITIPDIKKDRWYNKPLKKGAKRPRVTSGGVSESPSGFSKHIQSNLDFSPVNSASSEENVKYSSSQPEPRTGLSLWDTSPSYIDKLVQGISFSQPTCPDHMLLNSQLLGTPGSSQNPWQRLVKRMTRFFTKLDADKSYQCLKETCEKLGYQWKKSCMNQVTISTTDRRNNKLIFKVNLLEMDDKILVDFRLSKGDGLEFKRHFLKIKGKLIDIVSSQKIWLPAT

CK1δ = CK1δ (Homo sapiens, UniProt P48730)
Sequence of CK1δ (P48730 whole entry): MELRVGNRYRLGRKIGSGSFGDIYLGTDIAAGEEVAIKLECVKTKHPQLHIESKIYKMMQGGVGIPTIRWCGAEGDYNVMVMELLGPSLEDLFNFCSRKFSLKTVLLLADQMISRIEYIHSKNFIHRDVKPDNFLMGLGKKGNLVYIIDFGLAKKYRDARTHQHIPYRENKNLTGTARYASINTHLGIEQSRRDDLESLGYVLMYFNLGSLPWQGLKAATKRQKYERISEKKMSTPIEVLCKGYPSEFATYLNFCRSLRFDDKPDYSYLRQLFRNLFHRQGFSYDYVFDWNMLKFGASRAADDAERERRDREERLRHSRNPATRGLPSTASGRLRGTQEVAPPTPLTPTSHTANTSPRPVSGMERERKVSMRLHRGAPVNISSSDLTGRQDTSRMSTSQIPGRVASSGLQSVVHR

cSRC = cSRC (Homo sapiens, UniProt P12931)
Fyn = Fyn (Homo sapiens, UniProt P06241)
Sequence of Fyn (P06241 whole entry): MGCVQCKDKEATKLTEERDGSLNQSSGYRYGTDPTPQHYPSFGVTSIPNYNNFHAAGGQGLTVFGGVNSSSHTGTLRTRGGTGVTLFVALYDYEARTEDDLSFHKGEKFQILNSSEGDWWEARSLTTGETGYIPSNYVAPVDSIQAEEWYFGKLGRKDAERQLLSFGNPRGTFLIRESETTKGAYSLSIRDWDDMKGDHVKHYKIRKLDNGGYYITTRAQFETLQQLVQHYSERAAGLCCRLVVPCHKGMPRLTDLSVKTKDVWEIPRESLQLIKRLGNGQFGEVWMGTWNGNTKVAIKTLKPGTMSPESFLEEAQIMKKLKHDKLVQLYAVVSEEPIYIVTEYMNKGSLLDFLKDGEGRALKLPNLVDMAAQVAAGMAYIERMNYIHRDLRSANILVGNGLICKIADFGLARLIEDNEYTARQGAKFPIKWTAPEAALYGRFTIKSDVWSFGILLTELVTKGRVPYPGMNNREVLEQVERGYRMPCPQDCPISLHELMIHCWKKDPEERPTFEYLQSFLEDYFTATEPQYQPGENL

IR = IR (Homo sapiens, UniProt P06213)
Sequence of IR (P06213 28-1382): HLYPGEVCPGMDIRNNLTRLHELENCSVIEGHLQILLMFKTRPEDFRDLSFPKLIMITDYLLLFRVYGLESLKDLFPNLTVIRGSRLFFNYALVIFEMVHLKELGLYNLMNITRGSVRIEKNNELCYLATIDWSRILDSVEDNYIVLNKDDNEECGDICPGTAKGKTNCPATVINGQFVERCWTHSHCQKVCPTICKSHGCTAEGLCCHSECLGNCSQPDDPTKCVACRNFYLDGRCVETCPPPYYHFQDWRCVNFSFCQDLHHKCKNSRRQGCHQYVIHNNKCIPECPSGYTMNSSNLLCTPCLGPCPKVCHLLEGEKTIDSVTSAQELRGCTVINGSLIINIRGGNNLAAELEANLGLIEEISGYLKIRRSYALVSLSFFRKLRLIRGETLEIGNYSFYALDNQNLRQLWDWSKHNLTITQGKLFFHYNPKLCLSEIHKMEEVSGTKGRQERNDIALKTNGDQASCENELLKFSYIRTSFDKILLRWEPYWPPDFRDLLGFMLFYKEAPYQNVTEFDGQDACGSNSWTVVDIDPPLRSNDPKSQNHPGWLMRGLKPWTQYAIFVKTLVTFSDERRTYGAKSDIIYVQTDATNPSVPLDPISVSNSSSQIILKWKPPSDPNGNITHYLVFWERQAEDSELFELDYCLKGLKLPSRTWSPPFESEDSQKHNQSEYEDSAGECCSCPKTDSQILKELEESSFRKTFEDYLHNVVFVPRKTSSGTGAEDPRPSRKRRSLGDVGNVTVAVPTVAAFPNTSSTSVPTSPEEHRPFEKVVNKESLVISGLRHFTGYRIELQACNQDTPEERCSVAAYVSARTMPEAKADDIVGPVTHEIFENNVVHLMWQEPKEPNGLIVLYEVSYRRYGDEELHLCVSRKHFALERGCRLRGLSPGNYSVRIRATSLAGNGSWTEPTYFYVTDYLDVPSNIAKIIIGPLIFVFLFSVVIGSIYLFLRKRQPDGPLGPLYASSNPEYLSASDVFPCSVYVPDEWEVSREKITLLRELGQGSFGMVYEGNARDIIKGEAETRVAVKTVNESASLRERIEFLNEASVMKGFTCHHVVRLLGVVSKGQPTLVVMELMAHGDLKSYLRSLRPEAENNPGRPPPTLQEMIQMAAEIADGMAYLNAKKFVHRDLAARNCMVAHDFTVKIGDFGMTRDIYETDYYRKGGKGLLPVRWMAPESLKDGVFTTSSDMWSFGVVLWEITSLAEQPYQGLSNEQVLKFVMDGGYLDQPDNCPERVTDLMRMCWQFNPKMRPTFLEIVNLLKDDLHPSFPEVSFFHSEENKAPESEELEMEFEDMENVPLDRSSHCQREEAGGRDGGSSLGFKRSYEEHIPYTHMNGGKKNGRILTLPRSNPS

MSSK1 = MSSK1 (Homo sapiens, UniProt Q9UPE1)
Sequence of MSSK1 (Q9UPE1 whole entry): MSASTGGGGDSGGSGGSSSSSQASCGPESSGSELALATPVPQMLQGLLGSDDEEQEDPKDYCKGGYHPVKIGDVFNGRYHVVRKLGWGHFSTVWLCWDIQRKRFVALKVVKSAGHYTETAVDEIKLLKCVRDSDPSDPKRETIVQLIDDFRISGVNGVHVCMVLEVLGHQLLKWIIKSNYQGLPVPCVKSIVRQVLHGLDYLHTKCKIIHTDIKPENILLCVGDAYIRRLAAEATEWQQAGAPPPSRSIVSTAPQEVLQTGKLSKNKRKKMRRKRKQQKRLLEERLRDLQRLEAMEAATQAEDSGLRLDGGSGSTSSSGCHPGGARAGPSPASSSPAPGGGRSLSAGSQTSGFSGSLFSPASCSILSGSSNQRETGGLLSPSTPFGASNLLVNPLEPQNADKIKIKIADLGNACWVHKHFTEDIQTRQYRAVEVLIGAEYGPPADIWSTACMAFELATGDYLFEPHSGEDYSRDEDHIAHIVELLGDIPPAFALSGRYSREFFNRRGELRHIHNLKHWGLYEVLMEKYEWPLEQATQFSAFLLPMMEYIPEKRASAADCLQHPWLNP

PKA = PKA (Homo sapiens, UniProt P17612)
TBK1 = target: T2, TBK1 (Homo sapiens, UniProt Q9UHD2)
T2 sequence (Q9UHD2 1-729): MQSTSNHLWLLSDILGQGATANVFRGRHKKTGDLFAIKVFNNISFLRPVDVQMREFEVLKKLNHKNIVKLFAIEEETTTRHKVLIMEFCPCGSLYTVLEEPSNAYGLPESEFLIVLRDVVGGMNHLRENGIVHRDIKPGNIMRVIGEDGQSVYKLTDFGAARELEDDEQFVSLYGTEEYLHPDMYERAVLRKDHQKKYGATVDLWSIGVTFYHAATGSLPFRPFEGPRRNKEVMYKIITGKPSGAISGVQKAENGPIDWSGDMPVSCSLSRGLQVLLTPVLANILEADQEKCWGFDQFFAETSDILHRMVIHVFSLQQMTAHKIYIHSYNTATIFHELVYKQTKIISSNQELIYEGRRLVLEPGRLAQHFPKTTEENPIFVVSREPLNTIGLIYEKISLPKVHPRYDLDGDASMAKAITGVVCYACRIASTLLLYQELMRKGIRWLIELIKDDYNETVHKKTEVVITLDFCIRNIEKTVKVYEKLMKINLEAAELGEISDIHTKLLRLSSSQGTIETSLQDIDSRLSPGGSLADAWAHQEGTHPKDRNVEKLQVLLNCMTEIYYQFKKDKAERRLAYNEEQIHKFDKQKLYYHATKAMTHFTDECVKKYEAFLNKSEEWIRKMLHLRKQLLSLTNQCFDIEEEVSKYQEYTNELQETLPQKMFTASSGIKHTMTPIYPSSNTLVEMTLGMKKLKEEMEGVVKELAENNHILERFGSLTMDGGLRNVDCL

TrkA = TrkA (Homo sapiens, UniProt P04629)
Sequence of TrkA (P04629 33-796): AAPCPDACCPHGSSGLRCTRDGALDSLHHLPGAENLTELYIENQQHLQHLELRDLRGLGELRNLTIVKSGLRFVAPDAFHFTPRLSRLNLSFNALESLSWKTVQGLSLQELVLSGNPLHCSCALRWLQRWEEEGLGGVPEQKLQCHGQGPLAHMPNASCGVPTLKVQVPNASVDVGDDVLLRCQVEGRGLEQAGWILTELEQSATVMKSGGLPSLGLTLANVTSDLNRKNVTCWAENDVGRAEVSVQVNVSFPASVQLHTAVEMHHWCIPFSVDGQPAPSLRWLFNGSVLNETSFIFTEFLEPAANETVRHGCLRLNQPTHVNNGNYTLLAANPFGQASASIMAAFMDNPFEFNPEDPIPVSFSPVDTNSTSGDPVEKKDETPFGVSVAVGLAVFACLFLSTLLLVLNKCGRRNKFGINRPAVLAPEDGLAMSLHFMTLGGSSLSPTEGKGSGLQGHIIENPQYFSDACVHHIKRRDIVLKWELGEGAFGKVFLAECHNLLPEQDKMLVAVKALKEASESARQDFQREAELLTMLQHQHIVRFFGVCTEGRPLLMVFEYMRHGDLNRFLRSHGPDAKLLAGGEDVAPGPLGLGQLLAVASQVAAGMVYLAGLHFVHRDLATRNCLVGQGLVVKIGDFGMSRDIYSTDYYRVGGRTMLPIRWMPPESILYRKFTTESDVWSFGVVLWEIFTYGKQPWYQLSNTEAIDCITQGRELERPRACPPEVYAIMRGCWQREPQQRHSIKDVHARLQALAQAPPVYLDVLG

ZIPK = ZIPK (Homo sapiens, UniProt O43293)
Sequence of ZIPK (O43293 whole entry): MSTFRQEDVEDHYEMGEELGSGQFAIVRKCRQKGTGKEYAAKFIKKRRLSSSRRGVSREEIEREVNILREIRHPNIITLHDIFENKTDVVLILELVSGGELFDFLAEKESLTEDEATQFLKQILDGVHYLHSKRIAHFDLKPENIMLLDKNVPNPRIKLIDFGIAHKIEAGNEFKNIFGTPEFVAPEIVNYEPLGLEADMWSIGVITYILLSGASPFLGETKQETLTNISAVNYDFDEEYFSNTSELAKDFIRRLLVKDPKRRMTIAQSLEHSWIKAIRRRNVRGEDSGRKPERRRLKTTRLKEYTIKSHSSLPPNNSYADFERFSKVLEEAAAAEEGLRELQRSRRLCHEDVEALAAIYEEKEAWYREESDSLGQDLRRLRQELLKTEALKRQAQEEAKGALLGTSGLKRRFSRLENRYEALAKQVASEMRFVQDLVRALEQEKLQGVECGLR

cKit(D816H) = cKit(D816H) (Homo sapiens, UniProt P10721, D816H)
Sequence of cKit(D816H) (P10721 26-976 D816H): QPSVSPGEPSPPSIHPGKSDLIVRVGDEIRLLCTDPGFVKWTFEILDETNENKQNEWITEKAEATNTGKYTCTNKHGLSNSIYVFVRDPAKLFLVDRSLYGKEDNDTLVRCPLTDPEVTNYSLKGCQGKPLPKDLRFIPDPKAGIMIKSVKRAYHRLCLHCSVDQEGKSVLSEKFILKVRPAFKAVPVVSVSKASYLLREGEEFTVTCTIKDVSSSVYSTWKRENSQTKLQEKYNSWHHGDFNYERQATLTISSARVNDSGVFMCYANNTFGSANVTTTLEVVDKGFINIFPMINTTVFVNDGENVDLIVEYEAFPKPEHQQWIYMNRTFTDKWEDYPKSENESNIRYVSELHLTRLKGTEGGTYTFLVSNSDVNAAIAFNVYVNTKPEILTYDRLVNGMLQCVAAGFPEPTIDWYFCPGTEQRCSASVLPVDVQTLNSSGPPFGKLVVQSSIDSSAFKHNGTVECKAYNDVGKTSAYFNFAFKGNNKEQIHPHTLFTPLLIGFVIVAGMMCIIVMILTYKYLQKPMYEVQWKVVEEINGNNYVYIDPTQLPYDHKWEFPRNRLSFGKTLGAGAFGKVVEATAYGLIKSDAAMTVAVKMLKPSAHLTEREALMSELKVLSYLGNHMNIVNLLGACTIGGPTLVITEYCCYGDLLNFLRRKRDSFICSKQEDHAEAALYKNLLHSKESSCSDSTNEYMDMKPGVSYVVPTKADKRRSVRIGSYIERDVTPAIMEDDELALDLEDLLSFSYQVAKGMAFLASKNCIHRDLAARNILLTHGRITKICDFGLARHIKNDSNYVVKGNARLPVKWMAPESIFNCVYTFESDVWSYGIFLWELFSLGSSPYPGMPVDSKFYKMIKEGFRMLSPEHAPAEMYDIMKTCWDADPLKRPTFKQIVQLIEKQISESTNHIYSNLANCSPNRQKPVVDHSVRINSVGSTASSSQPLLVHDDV

SMILES: COc1cc(O)c(CC=C(C)C)c(O)c1C(=O)/C=C/c1ccc(O)cc1 [Xanthohumol, xanthohumol]
- Kinase activity, % of Control (CHK1; 1 ug/ml): 121 % of Control
- Kinase activity, % of Control (CHK1; 5 ug/ml): 126 % of Control
- Kinase activity, % of Control (CHK1; 25 ug/ml): 142 % of Control
- Kinase activity, % of Control (CHK1; 50 ug/ml): 149 % of Control
- Kinase activity, % of Control (CK1δ; 5 ug/ml): 32 % of Control
- Kinase activity, % of Control (CK1δ; 25 ug/ml): 16 % of Control
- Kinase activity, % of Control (CK1δ; 50 ug/ml): 12 % of Control
- Kinase activity, % of Control (cSRC; 1 ug/ml): 92 % of Control
- Kinase activity, % of Control (cSRC; 5 ug/ml): 50 % of Control
- Kinase activity, % of Control (cSRC; 25 ug/ml): 27 % of Control
- Kinase activity, % of Control (cSRC; 50 ug/ml): 21 % of Control
- Kinase activity, % of Control (Fyn; 1 ug/ml): 104 % of Control
- Kinase activity, % of Control (Fyn; 5 ug/ml): 66 % of Control
- Kinase activity, % of Control (Fyn; 25 ug/ml): 42 % of Control
- Kinase activity, % of Control (Fyn; 50 ug/ml): 18 % of Control
- Kinase activity, % of Control (IR; 1 ug/ml): 120 % of Control
- Kinase activity, % of Control (IR; 5 ug/ml): 108 % of Control
- Kinase activity, % of Control (IR; 50 ug/ml): 103 % of Control
- Kinase activity, % of Control (MSSK1; 1 ug/ml): 47 % of Control
- Kinase activity, % of Control (MSSK1; 5 ug/ml): 11 % of Control
- Kinase activity, % of Control (MSSK1; 25 ug/ml): 7 % of Control
- Kinase activity, % of Control (MSSK1; 50 ug/ml): 5 % of Control
- Kinase activity, % of Control (PKA; 1 ug/ml): 105 % of Control
- Kinase activity, % of Control (PKA; 5 ug/ml): 109 % of Control
- Kinase activity, % of Control (PKA; 25 ug/ml): 98 % of Control
- Kinase activity, % of Control (PKA; 50 ug/ml): 21 % of Control
- Kinase activity, % of Control (TBK1; 1 ug/ml): 104 % of Control
- Kinase activity, % of Control (TBK1; 5 ug/ml): 71 % of Control
- Kinase activity, % of Control (TBK1; 25 ug/ml): 45 % of Control
- Kinase activity, % of Control (TBK1; 50 ug/ml): 42 % of Control
- Kinase activity, % of Control (TrkA; 1 ug/ml): 36 % of Control
- Kinase activity, % of Control (TrkA; 5 ug/ml): 19 % of Control
- Kinase activity, % of Control (TrkA; 25 ug/ml): 8 % of Control
- Kinase activity, % of Control (TrkA; 50 ug/ml): 3 % of Control
- Kinase activity, % of Control (ZIPK; 1 ug/ml): 115 % of Control
- Kinase activity, % of Control (ZIPK; 5 ug/ml): 74 % of Control
- Kinase activity, % of Control (ZIPK; 25 ug/ml): 20 % of Control
- Kinase activity, % of Control (ZIPK; 50 ug/ml): 70 % of Control
- Kinase activity, % of Control (cKit(D816H); 1 ug/ml): 94 % of Control
- Kinase activity, % of Control (cKit(D816H); 5 ug/ml): 45 % of Control
- Kinase activity, % of Control (cKit(D816H); 25 ug/ml): 14 % of Control
